Data from patent publication US20210177814A1, “USE OF GUANABENZ OR DERIVATES THEREOF FOR THE TREATMENT OF TYPE I IFN-DEPENDENT PATHOLOGIES” (INSERM (Institut National de la Santé et de la Recherche …, priority 2018, published 2021).

Columns and labels:
[1] = test system: TLR9 signal transduction pathway; test: Phospho-flow detection of rpS6 phosphorylation after CpG exposure; format: cell-based; conditions: CAL-1 and human B cells, 15 min to 1 h of CpG exposure, data not shown
[2] = test system: RIG-I like receptor (RLR) dsRNA sensing pathway; test: IRF3 activation and IFN-β expression in MEFs lipofected with poly(I:C); format: cell-based, mouse; conditions: WT and Gadd34-deficient
Procedure: FIG. 2: Interferon β (IFNb) production in response to cytosolic dsRNA (Poly I:C) in WT and Gadd34-deficient embryonic fibroblasts (MEFs) treated with Guanabenz.
(A) IFNb expression in response to lipofected dsRNA (poly I:C) was measured by qPCR (mRNA) or (B) by ELISA (secreted protein) after treatment with Guanabenz (GBZ). (C) Activation of the transcription IRF3 by phosphorylation that drives IFN-β mRNA expression was monitored by western blot in WT and Gadd34-deficient animals (ΔC/ΔC, KO or −/−) in response to lipofected poly I:C in presence of GBZ. (D) eIF2α A/A mutants MEFs (unable to phosphorylate eIF2α on Serine 52, that is targeted by GADD34 and to inhibit protein synthesis) were also tested for IFN-β production and IRF3 activation.

[3] = test system: dendritic cells (TLR stimulation); test: IFN-β and IL-6 production by WT and GADD34ΔC/ΔC DCs stimulated with TLR ligands; format: cell-based, mouse; conditions: GBZ 50 μM
Procedure: BM-derived DCs were differentiated in vitro from the bone marrow of 6-8 weeks old male mice, using either FLT3 ligand or GM-CSF. Flt3L-DCs were used for experiments between days 6 and 7. Flt3L was produced using B16-Flt3L hybridoma cells. Bone marrow progenitors were plated at 1.5 10^6 cells/ml, 4 ml/well in 6 well plate, and cultivated with RPMI (GIBCO), 10% FCS (Sigma Aldrich), 100 units/ml penicillin and 100 μg/ml streptomycin (GIBCO), 50 μM b-mercaptoethanol (VWR) and Flt3L. For sorted Flt3L-DCs, cells were gently harvested at day 7 with cold PBS 2% FCS, centrifuged 1200 rpm 5 min at 4° C., counted and stained with for 30 mins at 4° C. Cells were sorted with the FACS ARIASorp. Cells were kept on ice all the time. After sorting, cells were resuspended in supplemented Flt3L-DCs medium at the concentration of 0.2 0.10^6 cells/well and plated at in a 96 wells plate U bottom. GM-CSF DCs were produced and used for experiments at day 6 of differentiation.
Splenocytes were dissociated injecting Liberase TL, followed by 25 min incubation at 37° C. Cells were washed using MACS buffer (PBS 1X+1% FBS+2 mM EDTA) and passed in a cell strainer 70 μm, then centrifuged 5 min at 450 RCF, 4° C. Red blood cells were lysed using the commercial buffer from eBioscience. Dendritic cells were purified using CD11c^+ positive selection kit from Miltenyi. Splenic DCs were then resuspended in the same medium as for Flt3L-DCs at 1.10^6 cells/ml and plated in a 12 wells plate, 2 ml×well. B lymphocytes were purified using B cell isolation kit, a negative selection kit from Miltenyi. B cells were then resuspended in a medium composed of RPMI (GIBCO), 10% FCS (Sigma Aldrich), lx glutamine, 1× non-essential amino acids, 10 mM HEPES (all the previous from GIBCO), 50 μM b-mercaptoethanol (VWR). Cells were plated at 1×10^6 cells/well in 96 well plate, flat.
Mouse IFN-β quantification in culture supernatant was performed using the Mouse Interferon Beta ELISA kit (PBL InterferonSource); mouse IL-6, TNFα, IL-10, human TNFα and human IFNα were quantified using ELISA kit (eBioscience) respectively, according to manufacturer instructions.
We have previously shown that GM-CSF-induced bone-marrow-derived DCs from GADD34^ΔC/ΔC mouse display limited capacity to express IFNβ and IL-6 in response to the dsRNA mimic polyriboinosinic:polyribocytidylic acid (poly(I:C)). We investigated whether this observation could be extended to other DC subsets and TLR ligands. WT and GADD34^ΔC/ΔC DC isolated directly from spleen or generated in vitro from bone-marrow progenitors, using either Flt3L- or GM-CSF-induced differentiation, were submitted to stimulation with LPS, poly(I:C) or CpG ODN and analyzed for IFN-β and IL-6 production (data not shown). […]

[4] = GADD34ΔC/ΔC Flt3L-DCs, CpG ODN stimulation

Q: What does the source list for `NC(N)=N/N=C/c1c(Cl)cccc1Cl` [GBZ, 2-(2,6-dichlorobenzylidene)-hydrazinecarboximidamide]?
A: rpS6 phosphorylation [1]: strong reduction; IFN-β expression (mRNA by qPCR, secreted protein by ELISA) [2]: inhibited; activation of IRF3 (phosphorylation, western blot) [2]: inhibited; IFN-β expression (mRNA by qPCR, secreted protein by ELISA) ([2]; listed as Guanabenz): inhibit; activation of IRF3 (phosphorylation, western blot) ([2]; listed as Guanabenz): inhibit; IFN-β production [3, 4]: incapable of producing; IL-6 production [3, 4]: incapable of producing; IFN-β production in response to TLR9 stimulation compared with Gadd34 genetic inactivation ([3]; data not shown): far stronger capacity to inhibit; IL-6 production compared with Gadd34 genetic inactivation ([3]; data not shown): superimposable to GADD34 deficiency
